Measurements from patent US20230332237A1, “Molecular Biomarkers for Predicting Patient Response to Steroid Therapy” (Florida State University Research Foundation, Inc., priority 2022, published 2023).

Assays:
[1] = tested on: steroid sensitive keloid fibroblasts; experiment: RNA-seq differential gene expression in steroid sensitive keloid fibroblasts following TA treatment; format: cell-based, human; settings: 10 μM TA for 96 hrs vs DMSO, Padj≤0.05
Description: (§1) Culture of keloid-derived primary fibroblasts. Surgically excised keloid and normal skin explants were obtained from patients under Florida State University institutional review board guidelines (Approved by the Human Subjects Committee (HSC) of the Florida State University Institutional Review Board; HSC numbers: 2016.19175 and 2017.22173). The explants were cut into small pieces, digested with trypsin, and washed with and cultured in Dulbecco's Modified Eagle Medium containing 10% fetal bovine serum and antibiotic/antimycotic solution maintained at 37.8° C. (98.68° F.) and 5% carbon dioxide. Outgrowth of only primary dermal fibroblasts occurred under our culture conditions, and these were recovered by trypsinization for use in experiments at low passage. The keloid fibroblasts are morphologically identical to commercially obtained normal primary human dermal fibroblasts (HDF; Cell Applications, Inc., San Diego, CA) used as our normal controls. […]
(§2) RNA extraction. […] The quality and quantity of each RNA sample was measured by Tapestation (Agilent). […]
(§3) RNA-seq. […] The RNA-seq libraries were sequenced on a NovaSeq 6000 sequencer (Illumina) to obtain 2×100 or 2×150-base reads. […] FASTQC was used to filter out reads of low to moderate quality. Paired-end reads were mapped to the GRCh38 reference genome using Salmon (28). The average mapped reads were 323M reads per sample and average mapped rate was 94.8%. […]

[2] = tested on: steroid resistant keloid fibroblasts; experiment: RNA-seq differential gene expression in steroid resistant keloid fibroblasts following TA treatment; format: cell-based, human; settings: 10 μM TA for 96 hrs vs DMSO, Padj≤0.05
Description: as §1, §2, §3

IGFBP1 = settings: treatment with prednisolone; literature refs 23, 24; cited from earlier work
IGFBP2 = settings: treatment with prednisolone; literature refs 23, 24; cited from earlier work
IGF1 = settings: treatment with prednisolone; literature refs 23, 24; cited from earlier work

Compound | genes downregulated after TA treatment [1] | genes upregulated after TA treatment [1] | genes downregulated after TA treatment [2] | genes upregulated after TA treatment [2] | IGFBP1 (IGFBP1) | IGFBP2 (IGFBP2) | serum IGF1 concentration (IGF1)
CC1(C)O[C@@H]2C[C@H]3[C@@H]4CCC5=CC(=O)C=C[C@]5(C)[C@@]4(F)[C@@H](O)C[C@]3(C)[C@]2(C(=O)CO)O1 [TA, Triamcinolone Acetonide] | 521 | 526 | 106 | 131 | – | – | –
C[C@]12C=CC(=O)C=C1CC[C@@H]1[C@@H]2[C@@H](O)C[C@@]2(C)[C@H]1CC[C@]2(O)C(=O)CO [prednisolone] | – | – | – | – | reduces | reduces | increases
